Measurements taken from ChEMBL document CHEMBL5247665, “Improved synthesis and anticancer activity of a potent neuronal nitric oxide synthase inhibitor” (Bioorg Med Chem Lett, 2023).

Assay: Toxicity in mouse at 10 mg/kg measured after 21 days
Assay type: organism-based
Settings: in vivo, 504 h, time 21 day

With `CNCc1cccc(CCc2ccc3c(C)cc(N)nc3c2)c1.Cl.Cl` the Activity was “Non-Toxic”.
